Values quoted from earlier work as cited in PMC8513935.

What was measured:
[1] = log P octanol/water from commercial databases, averaged (the ESI); conditions: Octanol (wet), 25 C
[2] = experimental, compiled by the authors from the literature (the ESI cites the sources)
[3] = derived by the authors as gas->solvent minus gas->water (a hypothetical dry solvent; the ESI), not a two-phase measurement

In the case of `CCCCCCl`, the log K of transfer, water to solvent [1] is given as 3.11 log10 K, the log K of transfer, gas to solvent ([2]; Di-n-butyl ether, 25 C) is given as 3.51 log10 K and the log K of transfer, gas to solvent ([2]; Hexadecane, 25 C) is given as 3.22 log10 K. For the same molecule, the log K of transfer, gas to solvent ([2]; Hexane, 25 C) was 3.5 log10 K, the log K of transfer, gas to solvent ([2]; Propanone, 25 C) was 3.56 log10 K and the log K of transfer, gas to solvent ([2]; Tetrahydrofuran, 25 C) was 4.16 log10 K. The log K of transfer, gas to solvent ([2]; Water, 25 C) was 0.05 log10 K, the log K of transfer, water to solvent ([3]; Acetone, 25 C) was 3.51 log10 K and the log K of transfer, water to solvent ([3]; Di-n-butyl ether, 25 C) was 3.46 log10 K. The log K of transfer, water to solvent ([3]; Hexadecane, 25 C) was 3.17 log10 K, the log K of transfer, water to solvent ([3]; Hexane, 25 C) was 3.45 log10 K and the log K of transfer, water to solvent ([3]; Tetrahydrofuran, 25 C) was 4.11 log10 K.

For `CCCC(C)=O`, the log K of transfer, water to solvent [1] is given as 0.84 log10 K, the log K of transfer, gas to solvent ([2]; Benzene, 25 C) is given as 3.77 log10 K and the log K of transfer, gas to solvent ([2]; CCl4, 25 C) is given as 3.52 log10 K. For the same molecule, the log K of transfer, gas to solvent ([2]; Chlorobenzene, 25 C) was 3.87 log10 K, the log K of transfer, gas to solvent ([2]; Cyclohexane, 25 C) was 2.98 log10 K and the log K of transfer, gas to solvent ([2]; Hexadecane, 25 C) was 2.75 log10 K. For the same molecule, the log K of transfer, gas to solvent ([2]; Methanol, 25 C) was 3.58 log10 K, the log K of transfer, gas to solvent ([2]; Octan-1-ol, 25 C) was 3.19 log10 K and the log K of transfer, gas to solvent ([2]; Toluene, 25 C) was 3.68 log10 K. The log K of transfer, gas to solvent ([2]; Water, 25 C) was 2.58 log10 K, the log K of transfer, water to solvent ([3]; Benzene, 25 C) was 1.19 log10 K and the log K of transfer, water to solvent ([3]; CCl4, 25 C) was 0.94 log10 K. The log K of transfer, water to solvent ([3]; Chlorobenzene, 25 C) was 1.29 log10 K, the log K of transfer, water to solvent ([3]; Cyclohexane, 25 C) was 0.4 log10 K and the log K of transfer, water to solvent ([3]; Hexadecane, 25 C) was 0.175 log10 K. The log K of transfer, water to solvent ([3]; Methanol, 25 C) was 0.999 log10 K, the log K of transfer, water to solvent ([3]; Octan-1-ol(dry), 25 C) was 0.61 log10 K and the log K of transfer, water to solvent ([3]; Toluene, 25 C) was 1.1 log10 K.

In the case of `ClC(Cl)(Cl)Cl`, the log K of transfer, water to solvent [1] is listed as 2.83 log10 K, the log K of transfer, gas to solvent ([2]; 1,2-Dichloroethane, 25 C) is listed as 3.04 log10 K and the log K of transfer, gas to solvent ([2]; 2-Methylpropan-2-ol, 25 C) is listed as 2.74 log10 K. For the same molecule, the log K of transfer, gas to solvent ([2]; Acetonitrile, 25 C) was 2.68 log10 K, the log K of transfer, gas to solvent ([2]; Butan-1-ol, 25 C) was 2.84 log10 K and the log K of transfer, gas to solvent ([2]; Butanone, 25 C) was 3.04 log10 K. The log K of transfer, gas to solvent ([2]; CCl4, 25 C) was 3.24 log10 K, the log K of transfer, gas to solvent ([2]; Chloroform, 25 C) was 3.25 log10 K and the log K of transfer, gas to solvent ([2]; Cyclohexanone, 25 C) was 3.17 log10 K. The log K of transfer, gas to solvent ([2]; Di-n-butyl ether, 25 C) was 3.05 log10 K, the log K of transfer, gas to solvent ([2]; Diethyl Ether, 25 C) was 3.22 log10 K and the log K of transfer, gas to solvent ([2]; Ethanol, 25 C) was 2.75 log10 K. The log K of transfer, gas to solvent ([2]; Hexadecane, 25 C) was 2.82 log10 K, the log K of transfer, gas to solvent ([2]; Hexan-1-ol, 25 C) was 2.81 log10 K and the log K of transfer, gas to solvent ([2]; Hexane, 25 C) was 3.03 log10 K. The log K of transfer, gas to solvent ([2]; Methanol, 25 C) was 2.66 log10 K, the log K of transfer, gas to solvent ([2]; Octan-1-ol, 25 C) was 2.79 log10 K and the log K of transfer, gas to solvent ([2]; Propan-1-ol, 25 C) was 2.75 log10 K. For the same molecule, the log K of transfer, gas to solvent ([2]; Propanone, 25 C) was 3.04 log10 K, the log K of transfer, gas to solvent ([2]; Propionitrile, 25 C) was 2.86 log10 K and the log K of transfer, gas to solvent ([2]; Tetrahydrofuran, 25 C) was 3.41 log10 K. For the same molecule, the log K of transfer, gas to solvent ([2]; Water, 25 C) was -0.06 log10 K, the log K of transfer, water to solvent ([3]; 1,2-Dichloroethane, 25 C) was 3.1 log10 K and the log K of transfer, water to solvent ([3]; 2-Methylpropan-2-ol, 25 C) was 2.8 log10 K. The log K of transfer, water to solvent ([3]; Acetone, 25 C) was 3.1 log10 K, the log K of transfer, water to solvent ([3]; Acetonitrile, 25 C) was 2.74 log10 K and the log K of transfer, water to solvent ([3]; Butan-1-ol, 25 C) was 2.9 log10 K. For the same molecule, the log K of transfer, water to solvent ([3]; Butanone, 25 C) was 3.1 log10 K, the log K of transfer, water to solvent ([3]; CCl4, 25 C) was 3.3 log10 K and the log K of transfer, water to solvent ([3]; Chloroform, 25 C) was 3.31 log10 K. For the same molecule, the log K of transfer, water to solvent ([3]; Cyclohexanone, 25 C) was 3.23 log10 K, the log K of transfer, water to solvent ([3]; Di-n-butyl ether, 25 C) was 3.11 log10 K and the log K of transfer, water to solvent ([3]; Diethyl Ether, 25 C) was 3.28 log10 K. For the same molecule, the log K of transfer, water to solvent ([3]; Ethanol, 25 C) was 2.81 log10 K, the log K of transfer, water to solvent ([3]; Hexadecane, 25 C) was 2.88 log10 K and the log K of transfer, water to solvent ([3]; Hexan-1-ol, 25 C) was 2.87 log10 K. The log K of transfer, water to solvent ([3]; Hexane, 25 C) was 3.09 log10 K, the log K of transfer, water to solvent ([3]; Methanol, 25 C) was 2.72 log10 K and the log K of transfer, water to solvent ([3]; Octan-1-ol(dry), 25 C) was 2.85 log10 K. The log K of transfer, water to solvent ([3]; Propan-1-ol, 25 C) was 2.81 log10 K, the log K of transfer, water to solvent ([3]; Propionitrile, 25 C) was 2.92 log10 K and the log K of transfer, water to solvent ([3]; Tetrahydrofuran, 25 C) was 3.47 log10 K.

For `CCCCCCCCCCCCCCCCO`, the log K of transfer, water to solvent [1] is listed as 7.32 log10 K, the log K of transfer, gas to solvent ([2]; Decan-1-ol, 25 C) is listed as 9.86 log10 K and the log K of transfer, gas to solvent ([2]; Di-n-butyl ether, 25 C) is listed as 9.63 log10 K. For the same molecule, the log K of transfer, gas to solvent ([2]; Diethyl Ether, 25 C) was 9.91 log10 K, the log K of transfer, gas to solvent ([2]; Hexadecane, 25 C) was 8.65 log10 K and the log K of transfer, gas to solvent ([2]; Hexan-1-ol, 25 C) was 9.93 log10 K. For the same molecule, the log K of transfer, gas to solvent ([2]; Octan-1-ol, 25 C) was 9.9 log10 K, the log K of transfer, gas to solvent ([2]; Propan-2-ol, 25 C) was 10 log10 K and the log K of transfer, gas to solvent ([2]; Water, 25 C) was 2.02 log10 K. For the same molecule, the log K of transfer, water to solvent ([3]; Decan-1-ol, 25 C) was 7.84 log10 K, the log K of transfer, water to solvent ([3]; Di-n-butyl ether, 25 C) was 7.61 log10 K and the log K of transfer, water to solvent ([3]; Diethyl Ether, 25 C) was 7.89 log10 K. For the same molecule, the log K of transfer, water to solvent ([3]; Hexadecane, 25 C) was 6.63 log10 K, the log K of transfer, water to solvent ([3]; Hexan-1-ol, 25 C) was 7.92 log10 K and the log K of transfer, water to solvent ([3]; Octan-1-ol(dry), 25 C) was 7.88 log10 K. For the same molecule, the log K of transfer, water to solvent ([3]; Propan-2-ol, 25 C) was 8.03 log10 K.

In the case of `C/C=C\C`, the log K of transfer, water to solvent [1] is given as 2.33 log10 K, the log K of transfer, gas to solvent ([2]; Hexadecane, 25 C) is given as 1.74 log10 K and the log K of transfer, gas to solvent ([2]; Water, 25 C) is given as -0.99 log10 K. The log K of transfer, water to solvent ([3]; Hexadecane, 25 C) was 2.73 log10 K.

For `CCCc1ccccc1`, the log K of transfer, water to solvent [1] is given as 3.7 log10 K, the log K of transfer, gas to solvent ([2]; Hexadecane, 25 C) is given as 4.23 log10 K and the log K of transfer, gas to solvent ([2]; Hexane, 25 C) is given as 4.07 log10 K. For the same molecule, the log K of transfer, gas to solvent ([2]; Methanol, 25 C) was 3.91 log10 K, the log K of transfer, gas to solvent ([2]; Octan-1-ol, 25 C) was 4.09 log10 K and the log K of transfer, gas to solvent ([2]; Propan-2-ol, 25 C) was 3.93 log10 K. The log K of transfer, gas to solvent ([2]; Tetrahydrofuran, 25 C) was 4.87 log10 K, the log K of transfer, gas to solvent ([2]; Water, 25 C) was 0.39 log10 K and the log K of transfer, water to solvent ([3]; Hexadecane, 25 C) was 3.84 log10 K. For the same molecule, the log K of transfer, water to solvent ([3]; Hexane, 25 C) was 3.68 log10 K, the log K of transfer, water to solvent ([3]; Methanol, 25 C) was 3.52 log10 K and the log K of transfer, water to solvent ([3]; Octan-1-ol(dry), 25 C) was 3.7 log10 K. The log K of transfer, water to solvent ([3]; Propan-2-ol, 25 C) was 3.54 log10 K and the log K of transfer, water to solvent ([3]; Tetrahydrofuran, 25 C) was 4.48 log10 K.

In the case of `C=CCC`, the log K of transfer, water to solvent [1] is given as 2.4 log10 K, the log K of transfer, gas to solvent ([2]; 2-Methylpropan-1-ol, 25 C) is given as 1.45 log10 K and the log K of transfer, gas to solvent ([2]; 2-Methylpropan-2-ol, 25 C) is given as 1.49 log10 K. For the same molecule, the log K of transfer, gas to solvent ([2]; 3-Methylbutan-1-ol, 25 C) was 1.46 log10 K, the log K of transfer, gas to solvent ([2]; Butan-1-ol, 25 C) was 1.47 log10 K and the log K of transfer, gas to solvent ([2]; Butan-2-ol, 25 C) was 1.46 log10 K. For the same molecule, the log K of transfer, gas to solvent ([2]; CCl4, 25 C) was 1.83 log10 K, the log K of transfer, gas to solvent ([2]; Hexadecane, 25 C) was 1.53 log10 K and the log K of transfer, gas to solvent ([2]; Hexane, 25 C) was 1.83 log10 K. The log K of transfer, gas to solvent ([2]; Pentan-1-ol, 25 C) was 1.47 log10 K, the log K of transfer, gas to solvent ([2]; Propan-1-ol, 25 C) was 1.47 log10 K and the log K of transfer, gas to solvent ([2]; Propan-2-ol, 25 C) was 1.45 log10 K. For the same molecule, the log K of transfer, gas to solvent ([2]; Water, 25 C) was -1.01 log10 K, the log K of transfer, water to solvent ([3]; 2-Methylpropan-1-ol, 25 C) was 2.46 log10 K and the log K of transfer, water to solvent ([3]; 2-Methylpropan-2-ol, 25 C) was 2.5 log10 K. The log K of transfer, water to solvent ([3]; 3-Methylbutan-1-ol, 25 C) was 2.47 log10 K, the log K of transfer, water to solvent ([3]; Butan-1-ol, 25 C) was 2.48 log10 K and the log K of transfer, water to solvent ([3]; Butan-2-ol, 25 C) was 2.47 log10 K. For the same molecule, the log K of transfer, water to solvent ([3]; CCl4, 25 C) was 2.84 log10 K, the log K of transfer, water to solvent ([3]; Hexadecane, 25 C) was 2.54 log10 K and the log K of transfer, water to solvent ([3]; Hexane, 25 C) was 2.83 log10 K. For the same molecule, the log K of transfer, water to solvent ([3]; Pentan-1-ol, 25 C) was 2.48 log10 K, the log K of transfer, water to solvent ([3]; Propan-1-ol, 25 C) was 2.48 log10 K and the log K of transfer, water to solvent ([3]; Propan-2-ol, 25 C) was 2.46 log10 K.
